The values below come from publication PMC4965013, “Open Source Drug Discovery with the Malaria Box Compound Collection for Neglected Diseases and Beyond” (PLoS Pathogens, 2016).

Like-named read-outs stand apart in the source and are kept apart here.

Series [1] relates to P. falciparum in vitro translation. The arrangement: method as in ref [19] (a number printed in a supplementary file, which may have a reference list of its own: not looked up in the article's list). The settings on record: 1 µM; ref [19]; cited from earlier work.
A further series relates to Brugia malayi. Put plainly: Brugia malayi Scynexis. It counts as cell-based. The settings on record: 10µM. As for the experimental part:
Supplement ppat.1005763.s002.xlsx, sheet "S1 Table Heat Map" | column: Brugia malayi 5d % dead at 10µM Scynexis

Another series deals with B. caballi (USDA). Put plainly: B. caballi fluorescence-based growth assay. It counts as cell-based. The settings on record: Babesia caballi.
In series [2] the test system is Naegleria fowleri trophozoites. The series is described as follows: Naegleria fowleri CellTiter-Glo. It is filed as cell-based. The settings on record: 1µM. The procedure, abridged:
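Growth inhibition of Naegleria fowleri trophozoites in vitro, read as cellular ATP by CellTiter-Glo 2.0 luminescence in lysed cells, output in relative light units.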
In general terms: ATP-based viability assays read luminescence as a measure of living cells.

In another series the test system is Aedes aegypti. Put plainly: Aedes aegypti Scynexis. The settings on record: 10µM. The protocol: Supplement ppat.1005763.s002.xlsx, sheet "S1 Table Heat Map" | column: Aedes aegypti % dead 48hr 10 µM Synexis
Series [3] deals with P. falciparum NF54 gametocytes. The arrangement: method as in ref [72] (a number printed in a supplementary file, which may have a reference list of its own: not looked up in the article's list). Particulars: 10µM; ref [72]; cited from earlier work.
The subject of series [4] is P. falciparum NF54Pfs16 gametocytes stage I-III. Particulars: ref [61], cited from earlier work.
Series [5] has as its system P. berghei liver stage in HepG2-A16-CD81EGFP. Set-up: method as in ref [58, 65] (a number printed in a supplementary file, which may have a reference list of its own: not looked up in the article's list). Particulars: ref [58, 65], cited from earlier work.
The test system of a further series is T. equi (USDA strain). The series is described as follows: T. equi fluorescence-based growth assay. The settings on record: Theileria equi. It is filed as cell-based.
The subject of series [6] is P. falciparum NF54 gametocytes stage IV/V. Put plainly: Gametocyte PrestoBlue resazurin assay Mancama. It is filed as cell-based. Particulars: Plasmodium falciparum, NF54; 5µM; read-out: NF54 gametocyte Late Stage IV/V Resazurin %inhibition. In general terms: The colour change of resazurin is a common sign of viable cells or microbes.
Series [7] relates to HIV-1 JR-FL or HIV-1 NL4-3 pseudoviruses. Put plainly: HIV-1 pseudovirus infection luciferase. It is filed as cell-based. Particulars: Human immunodeficiency virus 1, HXB2 / NL43, read-out: HIV HXB2 % inhibition rep2 in U87 Luc.
Series [8] concerns Mycobacterium tuberculosis mc26220 replicating. The series is described as follows: microbe, parasite or virus in culture. It counts as cell-based.
A further series deals with P. falciparum Dd2. Put plainly: P. falciparum Dd2 asexual blood stages Scynexis. It is filed as cell-based. Particulars: Plasmodium falciparum.
The next series has as its system S. mansoni adult worms. Put plainly: S. mansoni adult worms LSHTM Bickle. It counts as cell-based, Schistosoma mansoni. The settings on record: 15 μM. As for the experimental part:
Columns DI-DJ, DL: Bickle group. (columns DI and DL data presented first in this paper, column DJ partially published in ref [95].). […] Male CD1 mice (aged 5–6 weeks) were bred on site using SPF conditions with access of food and water ab libitum. Worms were obtained by portal perfusion of CD1 mice (Charles River, UK) 6 weeks post-infection and 3 worm pairs added to the wells of 48 well plates (Nunc, UK) in 1 ml complete DMEM medium supplemented with 10% fetal calf serum (Gibco, UK), 2 mM L-glutamine, 100 U/ml penicillin, 100 µg/ml streptomycin (cDMEM). A primary adult worm screen was performed in which 400 MMV compounds were tested at 15 µM in 0.15% DMSO. Negative controls contained worms cultured in cDMEM alone and in cDMEM with 0.15% DMSO. Positive control wells contained worms cultured in Praziquantel (Sigma-Aldrich, UK) at 10 µM. Cultures were incubated at 37 °C and 5% CO2. Effects were assessed on day 5 of culture using an inverted microscope (Leitz Diavert Wetzlar, Germany). Any compounds producing complete immobility or ≥ 70% worm motility inhibition plus severe morphological damage were considered hits in the primary screen. […] IC50 for the compounds was calculated using Microsoft XLfit version 5.1.0.0 (2006-2008 ID Business Solutions Ltd). In vitro screening of S. mansoni schistosomula run at LSHTM (London): Schistosomula were prepared as previously reported with the modification of using a 45% and 70% Percoll gradient and the cercarial heads recovered from the 70% layer. All centrifugation steps were done at 350 xg. An appropriate volume of drug Stock was pre-added to wells in 96-well microtiter culture plates (Nunc, UK) containing 100 µl complete M169 (cM169). The wells were then topped up with another 100 µl of cM169 containing 100 schistosomula to give final concentrations of 15 µM of compound per well. Negative controls contained larvae cultured in cM169 alone and in cM169 with 0.5% DMSO. Positive control wells contained schistosomula cultured in Praziquantel (Sigma-Aldrich, UK) at 10 µM. Cultures were incubated at 37 °C and 5% CO2. Effects were assessed on day 3 of culture using an inverted microscope (Leitz Diavert Wetzlar, Germany). Any compounds producing complete immobility or ≥ 70% motility inhibition plus severe morphological damage were considered hits in the larval screen.

Series [9] concerns primary human hepatocytes. The series is described as follows: MPCC hepatotoxicity (albumin, urea, morphology). The settings on record: 10µM. It is filed as cell-based.
A further series deals with T. b. brucei Squib 427. The settings on record: ref [84]; read-out: Trypansoma brucei brucei Squib 427 IC50; cited from earlier work.
The test system of the next series is P. falciparum 3D7 or K1. The series is described as follows: Asexual Blood Stage Imaging Assay (DAPI) V. Avery. It counts as cell-based. Particulars: Plasmodium falciparum; 5µM; read-out: P. falciparum 3D7 asexual blood stage % inhibition (Image).
Series [10] has as its system MRC5SV2 human fibroblasts. The settings on record: read-out: MRC-5-Human-Fibroblasts EC50 (32000 >32µM); ref [84]; cited from earlier work.

Take `COc1ccc(C(=O)Nc2ccc3nc(N4CCCCC4)cc(C)c3c2)cc1OC` [MMV019758]: in [1], the “Translation Inhibitors (nl = 1.0, in vitro translation with P. falciparum lysate)” value is 0.98. Moreover, the “Brugia malayi 5d % dead” value in the series on Brugia malayi was 9%. Moreover, the EC50 (usually the midpoint of the concentration-response curve) with B. caballi (USDA) is 0.51 µM; in the series with T. equi (USDA strain) it was 6.99 µM; in series [10], 16.4 µM. The “Naegleria fowleri % growth” value in [2] stood at 87%. In addition, the “Aedes aegypti % dead 48hr” value in the series with Aedes aegypti was 6%. Besides, the “gametocyte stage IV-V SYBR Green % inhibition” value in series [3] is 49%. Further, the results for the “gametocyte early stage (I-III) luciferase % inhibition” value in [4] (0.5µM), in series [4] (2.5µM) and in series [4] (5µM) were -7%, -13% and -5.6%, respectively. For the same molecule, the “P. berghei Liver stage activity summary” value in series [5] (50uM) is on record as “tox (tox (toxic) if >50% HepG2)”. In [5] (50µM), the “P. berghei Liver stage infection rate rep1 (luciferase)” value is recorded as -4%. For the same molecule, in series [5] (50µM), the “P. berghei Liver stage infection rate rep2 (luciferase)” value was -4%. Besides, the inhibition at 5 µM in series [6] is 18%; in series [7], -36%; in the series on P. falciparum 3D7 or K1, 76%. For the same molecule, in series [8], the inhibition at 25 µM is 21%. Also, in the series on P. falciparum Dd2, the inhibition at 10 µM was determined as 36%. Moreover, in the series on S. mansoni adult worms, the “Schistosoma mansoni adult worm primary assay % Motility Reduction (Hit ≥ 70%)” value turned out to be 50%. In addition, in series [9], the “Human hepatocyte Urea synthesis, 1.0 normal” value was determined as 0.66. Moreover, in series [9], the “Human hepatocyte albumin synthesis, 1.0 normal” value came out at 0.58. For the same molecule, in the series with T. b. brucei Squib 427, the IC50 (usually the point on the concentration scale where inhibition reaches its midpoint) is 16.2 µM.
